Laboratory results: US4914110A, “Quinoline derivatives, their preparation and therapeutic compositions containing the same” (Societe de Conseils de Recherches et d'Applications …, priority 1988, dated 1990)
In brackets after ≈: the same amount, converted by molar mass.

What was measured:
[1] = tested on: Streptococcus pyogenes NCTC 8198; assay: bactericidal activity by serial dilution in Brain Heart Infusion Broth (MIC and MMC), S.p.; type: cell-based; conditions: 24 hours; for MIC: NCTC8198, 37° C., read-out: Minimal Inhibitory Concentration (MIC); for MBC: NCTC8198, sub-culture on Tryptone Soy Agar, 37° C., read-out: Minimal Microbiocidal Concentration (MMC)
Protocol: (§1) (A) The bactericidal activity of the compounds of the invention has been determined on various microorganisms, as hereinafter described.
(§2) Serial dilutions of the test and reference compounds are prepared in Brain Heart Infusion Broth (Oxoid CM225) in two-fold steps from 1000 μg/ml down to 0.5 μg/ml.
(§3) The test organisms are cultured on Tryptone Soy Agar (TSA, Oxoid CM131) and checked for viability and purity. Standardized inocula are then ppepared by inoculating slopes of TSA and incubating at 37° C. for 24 hours. The resultant bacterial growth is then removed by the addition of sterile physiological saline and shaking with glass beads. The suspensions of organisms are then standardized to give 50% transmission at […] on an SP600 Spectrophotometer. Calibration curves show this to yield approximately 10^8 colony forming units per ml.
(§4) 0.1 ml aliquots of these suspensions are then used to inoculate each of the prepared serial dilutions of the compounds in Brain Heart Infusion Broth.
(§5) The sets of dilutions are incubated at 37° C. for 24 hours and then inspected for the presence or absence of growth as shown by turbidity of the medium. The lowest concentration showing no growth of the test organism is recorded as the Minimal Inhibitory Concentration (MIC) of the compound for that organism.
(§6) Each of the tubes showing no growth are then sub-cultured onto plates of Tryptone Soy Agar and incubated at 37° C. for 24 hours. The plates are then inspected for the presence or absence of growth at the inoculation points. […] MIC and MMC are expressed in μg/ml.
(§7) The results are presented in the following table, in comparison with those for two reference compounds, nitrofuroxazide and pipemidic acid. The abreviations used in the table have the following meanings:
S.p. Streptococcus pyogenes

[2] = solubility in water; type: physicochemical
[3] = tested on: Salmonella enteritidis NCTC 6676; assay: bactericidal activity by serial dilution in Brain Heart Infusion Broth (MIC and MMC), S.e.; type: cell-based; conditions: Salmonella enterica, 37° C., 24 hours; for MIC: read-out: Minimal Inhibitory Concentration (MIC); for MBC: sub-culture on Tryptone Soy Agar, read-out: Minimal Microbiocidal Concentration (MMC)
Protocol: as §1, §2, §3, §4, §5, §6, §7
S.e. Salmonella enteritidis

[4] = tested on: Escherichia coli NCTC 8196; assay: bactericidal activity by serial dilution in Brain Heart Infusion Broth (MIC and MMC), E.c.; type: cell-based; conditions: 24 hours; for MIC: NCTC8196, 37° C., read-out: Minimal Inhibitory Concentration (MIC); for MBC: NCTC8196, sub-culture on Tryptone Soy Agar, 37° C., read-out: Minimal Microbiocidal Concentration (MMC)
Protocol: as §1, §2, §3, §4, §5, §6
(§8) The results are presented in the following table, in comparison with those for two reference compounds, nitrofuroxazide and pipemidic acid. The abreviations used in the table have the following meanings: […]

[5] = tested on: Shigella boydii NCTC 9328; assay: bactericidal activity by serial dilution in Brain Heart Infusion Broth (MIC and MMC), S.b.; type: cell-based; conditions: 24 hours; for MIC: NCTC9328, 37° C., read-out: Minimal Inhibitory Concentration (MIC); for MBC: NCTC9328, sub-culture on Tryptone Soy Agar, 37° C., read-out: Minimal Microbiocidal Concentration (MMC)
Protocol: as §1, §2, §3, §4, §5, §6, §7
S.b. Shigella boydii NCTC 9328

[6] = tested on: Pseudomonas aeruginosa ATCC 9027; assay: bactericidal activity by serial dilution in Brain Heart Infusion Broth (MIC and MMC), P.a.; type: cell-based; conditions: 24 hours; for MIC: ATCC9027, 37° C., read-out: Minimal Inhibitory Concentration (MIC); for MBC: ATCC9027, sub-culture on Tryptone Soy Agar, 37° C., read-out: Minimal Microbiocidal Concentration (MMC)
Protocol: as §1, §2, §3, §4, §5, §6, §7
P.a. Pseudomonas aeruginosa

[7] = solubility in dimethylsulfoxide; type: physicochemical
[8] = tested on: Staphylococcus aureus ATCC 6538; assay: bactericidal activity by serial dilution in Brain Heart Infusion Broth (MIC and MMC), S.a.; type: cell-based; conditions: 24 hours; for MIC: ATCC6538, 37° C., read-out: Minimal Inhibitory Concentration (MIC); for MBC: ATCC6538, sub-culture on Tryptone Soy Agar, 37° C., read-out: Minimal Microbiocidal Concentration (MMC)
Protocol: as §1, §2, §3, §4, §5, §6, §7
S.a. Staphylococcus aureus

[9] = tested on: Proteus mirabilis NCTC 8559; assay: bactericidal activity by serial dilution in Brain Heart Infusion Broth (MIC and MMC), P.m.; type: cell-based; conditions: 24 hours; for MIC: NCTC8559, 37° C., read-out: Minimal Inhibitory Concentration (MIC); for MBC: NCTC8559, sub-culture on Tryptone Soy Agar, 37° C., read-out: Minimal Microbiocidal Concentration (MMC)
Protocol: as §1, §2, §3, §4, §5, §6, §8

[10] = tested on: Vibrio Cholerae, Vibrio parahemolyticus, Vibrio alginolyticus, Aeromonas hydrophila Sobria and Salmonella; assay: bacteriostatic activity, preceding experiment (comparison within the series); type: cell-based; conditions: compared with the compounds of examples 1 to 5
Protocol: (B) The bacteriostatic activity of the compounds of the invention has also been searched against microorganisms more particularly related with gastro-enteritis.
This experiment was conducted in Mueller-Hinton gelose with tested compounds dissolved in dimethylsulfoxide (control dimethylsulfoxide was provided) at increasing concentrations from 0.01 to 100 μg. The strains used were Vibrio Cholerae (3 strains respectively from Europe, Africa and Conth-East-Asia), Vibrio parahemolyticus, Vibrio alginolyticus, Aeromonas hydrophila Sobria and Salmonella. Minimum inhibitory concentration was found for the 7 compounds of the invention, between 0.5 and 1 μg for the Salmonella strain and between 0.1 and 0.5 μg for the other strains, which denotes a strong bacteriostatic activity.

Structure (SMILES)	MIC [1] [µg/mL]	MBC [1] [µg/mL]	solubility in water [2]	MIC [3] [µg/mL]	MBC [3] [µg/mL]	MIC [4] [µg/mL]	MBC [4] [µg/mL]	MIC [5] [µg/mL]	MBC [5] [µg/mL]	MIC [6] [µg/mL]	MBC [6] [µg/mL]	solubility in dimethylsulfoxide [7]	MIC [8] [µg/mL]	MBC [8] [µg/mL]	MIC [9] [µg/mL]	MBC [9] [µg/mL]	relative activity in preceding experiment [10]
CCn1cc(C(=O)O)c(=O)c2cc(F)cc(F)c21 [Example 1, 1,4-dihydro-3-carboxy-6,8-difluoro-1-ethyl-4-oxo-quinoline]	16 (≈ 63.2 µM)	32 (≈ 126 µM)	insoluble	2 (≈ 7.9 µM)	4 (≈ 15.8 µM)	8 (≈ 31.6 µM)	8 (≈ 31.6 µM)	1 (≈ 3.95 µM)	1 (≈ 3.95 µM)	32 (≈ 126 µM)	64 (≈ 253 µM)	soluble	32 (≈ 126 µM)	32 (≈ 126 µM)	1 (≈ 3.95 µM)	2 (≈ 7.9 µM)	
O=C(O)c1cn(CCF)c2c(F)cc(F)cc2c1=O [Example 2]	32 (≈ 118 µM)	32 (≈ 118 µM)	insoluble	4 (≈ 14.7 µM)	8 (≈ 29.5 µM)	32 (≈ 118 µM)	32 (≈ 118 µM)	8 (≈ 29.5 µM)	16 (≈ 59 µM)	8 (≈ 29.5 µM)	8 (≈ 29.5 µM)	insoluble	4 (≈ 14.7 µM)	8 (≈ 29.5 µM)	4 (≈ 14.7 µM)	8 (≈ 29.5 µM)	
O=C(O)c1cn(COCCO)c2c(F)cc(F)cc2c1=O [Example 3]	2 (≈ 6.68 µM)	4 (≈ 13.4 µM)	insoluble	32 (≈ 107 µM)	32 (≈ 107 µM)	4 (≈ 13.4 µM)	8 (≈ 26.7 µM)	8 (≈ 26.7 µM)	8 (≈ 26.7 µM)	8 (≈ 26.7 µM)	16 (≈ 53.5 µM)	soluble	4 (≈ 13.4 µM)	8 (≈ 26.7 µM)	32 (≈ 107 µM)	32 (≈ 107 µM)	
O=C(O)c1cn(CC2CC2)c2c(F)cc(F)cc2c1=O [Example 4]	4 (≈ 14.3 µM)	4 (≈ 14.3 µM)	insoluble	2 (≈ 7.16 µM)	4 (≈ 14.3 µM)	64 (≈ 229 µM)	64 (≈ 229 µM)	32 (≈ 115 µM)	32 (≈ 115 µM)	8 (≈ 28.6 µM)	16 (≈ 57.3 µM)	soluble	64 (≈ 229 µM)	64 (≈ 229 µM)	1 (≈ 3.58 µM)	2 (≈ 7.16 µM)	
O=C(O)c1cn(Cc2ccc([N+](=O)[O-])o2)c2c(F)cc(F)cc2c1=O [Example 5]	8 (≈ 22.8 µM)	32 (≈ 91.4 µM)	insoluble	125 (≈ 357 µM)	125 (≈ 357 µM)	64 (≈ 183 µM)	64 (≈ 183 µM)	32 (≈ 91.4 µM)	32 (≈ 91.4 µM)	2 (≈ 5.71 µM)	2 (≈ 5.71 µM)	soluble	16 (≈ 45.7 µM)	64 (≈ 183 µM)	16 (≈ 45.7 µM)	32 (≈ 91.4 µM)	
O=C(O)c1cn(CC2CCCCC2)c2c(F)cc(F)cc2c1=O [Example 6]	16 (≈ 49.8 µM)	16 (≈ 49.8 µM)	insoluble	4 (≈ 12.4 µM)	4 (≈ 12.4 µM)	64 (≈ 199 µM)	64 (≈ 199 µM)	8 (≈ 24.9 µM)	8 (≈ 24.9 µM)	4 (≈ 12.4 µM)	8 (≈ 24.9 µM)	insoluble	8 (≈ 24.9 µM)	16 (≈ 49.8 µM)	8 (≈ 24.9 µM)	8 (≈ 24.9 µM)	less active
O=C(O)c1cn(Cc2c(Cl)cccc2Cl)c2c(F)cc(F)cc2c1=O [Example 7]	32 (≈ 83.3 µM)	64 (≈ 167 µM)	insoluble	2 (≈ 5.21 µM)	4 (≈ 10.4 µM)	1 (≈ 2.6 µM)	2 (≈ 5.21 µM)	16 (≈ 41.6 µM)	32 (≈ 83.3 µM)	8 (≈ 20.8 µM)	8 (≈ 20.8 µM)	insoluble	8 (≈ 20.8 µM)	8 (≈ 20.8 µM)	2 (≈ 5.21 µM)	4 (≈ 10.4 µM)	less active
O=C(N/N=C/c1ccc([N+](=O)[O-])o1)c1ccc(O)cc1 [Nif., Nifuroxazide, reference compound]	1 (≈ 3.63 µM)	1 (≈ 3.63 µM)		500 (≈ 1820 µM)	500 (≈ 1820 µM)	4 (≈ 14.5 µM)	4 (≈ 14.5 µM)	8 (≈ 29.1 µM)	8 (≈ 29.1 µM)	500 (≈ 1820 µM)	500 (≈ 1820 µM)		8 (≈ 29.1 µM)	8 (≈ 29.1 µM)	500 (≈ 1820 µM)	500 (≈ 1820 µM)	
CCn1cc(C(=O)O)c(=O)c2cnc(N3CCNCC3)nc21 [Pip., Pipemidic acid, reference compound]	4 (≈ 13.2 µM)	125 (≈ 412 µM)		4 (≈ 13.2 µM)	8 (≈ 26.4 µM)	4 (≈ 13.2 µM)	4 (≈ 13.2 µM)	4 (≈ 13.2 µM)	4 (≈ 13.2 µM)	1 (≈ 3.3 µM)	16 (≈ 52.7 µM)		2 (≈ 6.59 µM)	250 (≈ 824 µM)	4 (≈ 13.2 µM)	8 (≈ 26.4 µM)	
